Legend:
[1] = tested on: P388 murine leukemia, B16 melanoma, Lewis lung carcinoma, and several human tumor xenograft models; details: activity against P388, B16, Lewis lung, human tumor xenografts in mice; cited from earlier work
[2] = tested on: L1210 murine leukemia; experiment: in vitro cytotoxicity to L1210 murine leukemia; type: cell-based; details: potency relative to Et 743
Excerpt: In view of the exceptional antitumor properties of the natural ecteinascidins, the present invention has studied the antitumor activities of the semi-synthetic analogs prepared herein.

[3] = tested on: B16 melanoma; details: recent experiments, NCI evaluation; cited from earlier work

Structure (SMILES)	efficacy in vivo [1]	IC50 (Et 743)/IC50 [2]	survivors 60 days following infection with B16 melanoma [3]
COc1c(C)cc2c(c1O)[C@H]1N[C@@H](C2)[C@H](O)N2[C@H]1[C@@H]1SC[C@]3(NCCc4c3[nH]c3ccccc43)C(=O)OC[C@H]2c2c3c(c(C)c(OC(C)=O)c21)OCO3 [Et 722]	promising efficacy in vivo		
COc1cc2c(cc1O)CCN[C@]21CSC2c3c(OC(C)=O)c(C)c4c(c3C(COC1=O)N1C2C2NC(Cc3cc(C)c(OC)c(O)c32)[C@@H]1O)OCO4 (stereo partly drawn) [Et 729]	promising efficacy in vivo	10	8 of 10
COc1cc2c(cc1O)CCN[C@]21CSC2c3c(OC(C)=O)c(C)c4c(c3C(COC1=O)N1C2C2c3c(cc(C)c(OC)c3O)CC([C@@H]1O)N2C)OCO4 (stereo partly drawn) [Et 743]	promising efficacy in vivo		
COc1cc2c(cc1O)CCN(C)[C@]21CSC2c3c(OC(C)=O)c(C)c4c(c3C(COC1=O)N1C2C2c3c(cc(C)c(OC)c3O)CC([C@@H]1O)N2C)OCO4 (stereo partly drawn) [Et 757]		50	
COC(=O)C(C(=O)OC)[C@H]1C2Cc3cc(C)c(OC)c(O)c3C(C3C4SC[C@]5(NCCc6cc(O)c(OC)cc65)C(=O)OCC(c5c6c(c(C)c(OC(C)=O)c54)OCO6)N31)N2C (stereo partly drawn) [Et 875]		1	
COc1cc2c(cc1O)CCNC21CSC2c3c(OC(C)=O)c(C)c4c(c3C(COC1=O)N1C(O)C3Cc5cc(C)c(OC)c(O)c5C(C21)N3Cc1ccc(CN2C3Cc5cc(C)c(OC)c(O)c5C2C2C5SCC6(NCCc7cc(O)c(OC)cc76)C(=O)OCC(c6c7c(c(C)c(OC(C)=O)c65)OCO7)N2C3O)cc1)OCO4 (stereo not drawn) [Et 1560]		0.25	
COc1cc2c(cc1O)CCN(C)[C@]21CSC2c3c(OC(C)=O)c(C)c4c(c3C(COC1=O)N1C2C2NC(Cc3cc(C)c(OC)c(O)c32)[C@@H]1O)OCO4 (stereo partly drawn) [Iso-Et 743]		17	
